Patent US20120283216A1, “FUNGICIDAL 2-(BICYCLIC ARYLOXY)CARBOXAMIDES” (priority 2009, published 2012)

What was measured:
Type in all cases: in vivo
[1] = tested on: Blumeria graminis f. sp. tritici; assay: Test A: wheat powdery mildew, preventive spray on wheat seedlings, visual disease rating; conditions: preventive spray at 40 ppm, rated 8 days after inoculation; for pest or weed control at 40 ppm: Blumeria graminis, 192 h, read-out: Test A disease control rating (100 = 100% disease control, 0 = no disease control relative to the controls)
Summary of the method: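 After 8 days in a 20° C. growth chamber, disease was scored visually as % control versus untreated (100 = full control). Plants had received a run-off spray of 40 ppm (≈800 g/ha label rate) in acetone/water plus surfactant, with spore-dust inoculation one day later.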

Septoria tritici = assay: Test B: wheat leaf blotch, preventive spray on wheat seedlings, visual disease rating; conditions: preventive spray at 40 ppm, rated after 48 h + 19 days; for pest or weed control at 40 ppm: Zymoseptoria tritici, 504 h, read-out: Test B disease control rating (100 = 100% disease control, 0 = no disease control relative to the controls)
Summary of the method: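 Visual ratings of percent disease control relative to untreated controls were made 19 days after a 48 h saturated-atmosphere incubation at 20° C. Plants had been spore-inoculated one day after a preventive run-off spray at 40 ppm, equivalent to 800 g/ha.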

Botrytis cinerea = assay: Test C: tomato botrytis, preventive spray on tomato seedlings, visual disease rating; conditions: preventive spray at 40 ppm, rated after 48 h + 3 days; for pest or weed control at 40 ppm: Botrytis cinerea, 120 h, read-out: Test C disease control rating (100 = 100% disease control, 0 = no disease control relative to the controls)
Summary of the method: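 Compounds applied at 40 ppm (≈800 g/ha) in acetone/water with surfactant, sprayed to run-off on tomato seedlings. Inoculated next day with B. cinerea spores; 48 h saturated humidity at 20 °C, then 3 days at 27 °C. Visual rating as % disease control versus untreated controls.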

Structure (SMILES) | pest or weed control at 40 ppm [1] | pest or weed control at 40 ppm (Septoria tritici) | pest or weed control at 40 ppm (Botrytis cinerea) | Test A disease control rating (100 = 100% disease control, 0 = no disease control relative to the controls) [1] | Test B disease control rating (100 = 100% disease control, 0 = no disease control relative to the controls) (Septoria tritici) | Test C disease control rating (100 = 100% disease control, 0 = no disease control relative to the controls) (Botrytis cinerea)
C#CC1(NC(=O)C(CC)Oc2ccc3ccc(OC)cc3c2)CCCCC1 (stereo not drawn) [Compound 85] | 0% | 84% | 99% | – | – | –
CCC(Oc1ccc2ccc(OC(F)F)cc2c1)C(=O)NC(C)(C)C (stereo not drawn) [Compound 5] | 99% | 99% | 100% | – | – | –
COCC(C)(C)NC(=O)C(C)Oc1cnc2ccc(I)cc2c1 (stereo not drawn) [Compound 59, 2-[(6-iodo-3-quinolinyl)oxy]-N-(2-methoxy-1,1-dimethylethyl)propanamide] | 0% | 95% | 99% | – | – | –
CCOC(Oc1ccc2ccc(Br)cc2c1)C(=O)NC(C)(C)COC (stereo not drawn) [Compound 118] | – | – | – | 0% | 97% | 97%
C#Cc1ccc2ncc(OC(OC)C(=O)NC(C)(C)C)cc2c1 (stereo not drawn) [Compound 163] | – | – | – | 99% | 100% | 100%
CCC(Oc1cnc2ccc(I)cc2c1)C(=O)NC(C)(C)C (stereo not drawn) [Compound 51, N-(1,1-dimethylethyl)-2-[(6-iodo-3-quinolinyl)oxy]butanamide] | 93% | 100% | 99% | – | – | –
CC#Cc1ccc2ccc(OC(OC)C(=O)NC(C)(C)COC)cc2c1 (stereo not drawn) [Compound 108, 2-methoxy-N-(2-methoxy-1,1-dimethylethyl)-2-[[7-(1-propyn-1-yl)-2-naphthalenyl]oxy]acetamide] | 100% | 100% | 48% | – | – | –
CCC(Oc1ccc2ccc(OC)cc2c1)C(=O)N(CC)C(C)(C)C (stereo not drawn) [Compound 167] | 0% | 64% | 68% | – | – | –
CCC(Oc1ccc2ccc(OCOC)cc2c1)C(=O)NC(C)(C)C#N (stereo not drawn) [Compound 72] | – | – | – | 0% | 99% | 100%
CCC(Oc1ccc2ccc(OC)cc2c1)C(=O)NC(C)(C)C (stereo not drawn) [Compound 3, N-(1,1-dimethylethyl)-2-[(7-methoxy-2-naphthalenyl)oxy]butan amide] | 100% | 99% | 99% | – | – | –
COC(Oc1ccc2ccc(I)cc2c1)C(=O)NC(C)(C)C#N (stereo not drawn) [Compound 104] | – | – | – | 94% | 100% | 99%
C#Cc1ccc2ncc(OC(CC)C(=O)NC(C)(C)C#N)cc2c1 (stereo not drawn) [Compound 152] | – | – | – | 88% | 100% | 94%
CCC(Oc1cnc2c(Cl)cc(Cl)cc2c1)C(=O)NC(C)(C)COC (stereo not drawn) [Compound 56] | – | – | – | 0% | 99% | 99%
C#CC(C)(C)NC(=O)C(OC)Oc1ccc2ccc(C(F)F)cc2c1 (stereo not drawn) [Compound 80] | – | – | – | 0% | 93% | 100%
CCC(Oc1cnc2ccc(I)cc2c1)C(=O)NC(C)(C)COC (single isomer, unassigned) [Compound 61] | – | – | – | 98% | 100% | 99%
CCC(Oc1ccc2ccc(C#N)cc2c1)C(=O)NC(C)(C)COC (stereo not drawn) [Compound 21] | – | – | – | 91% | 99% | 99%

Structure (SMILES) | pest or weed control at 40 ppm [1] | pest or weed control at 40 ppm (Septoria tritici) | pest or weed control at 40 ppm (Botrytis cinerea) | Test A disease control rating (100 = 100% disease control, 0 = no disease control relative to the controls) [1] | Test B disease control rating (100 = 100% disease control, 0 = no disease control relative to the controls) (Septoria tritici) | Test C disease control rating (100 = 100% disease control, 0 = no disease control relative to the controls) (Botrytis cinerea)
CCOCC(C)(C)NC(=O)C(CC)Oc1ccc2ccc(CC)cc2c1 (stereo not drawn) [Compound 139] | – | – | – | 97% | 47% | 96%
CCOc1ccc2ccc(OC(OC)C(=O)NC(C)(C)C#N)cc2c1 (stereo not drawn) [Compound 68] | – | – | – | 100% | 100% | 100%
C#CC(C)(C)NC(=O)C(CC)Oc1cnc2ccc(Cl)cc2c1 (stereo not drawn) [Compound 41] | – | – | – | 0% | 96% | 96%
COCC(C)(C)NC(=O)C(C)Oc1ccc2ccc(Br)cc2c1 (stereo not drawn) [Compound 24, 2-[(7-bromo-2-naphthalenyl)oxy]-N-(2-methoxy-1,1-dimethylethyl)propanamide] | 100% | 100% | 98% | – | – | –
COCC(C)(C)NC(=O)C(OC)Oc1ccc2ccc(Br)cc2c1 (stereo not drawn) [Compound 90, 2-[(7-bromo-2-naphthalenyl)oxy]-2-methoxy-N-(2-methoxy-1,1-dimethylethyl)acetamide] | 100% | 100% | 100% | – | – | –
C#CC(C)(C)NC(=O)C(CC)Oc1ccc2ccc(CC)cc2c1 (stereo not drawn) [Compound 141] | – | – | – | 97% | 80% | 100%
C#CC(C)(C)NC(=O)C(CC)Oc1ccc2ccc(OC(F)F)cc2c1 (stereo not drawn) [Compound 6] | – | – | – | 98% | 100% | 100%
CCC(Oc1ccc2ccc(OCOC)cc2c1)C(=O)NC(C)(C)C (stereo not drawn) [Compound 71] | – | – | – | 81% | 99% | 99%
CCC(Oc1cnc2ccc(F)cc2c1)C(=O)NC(C)(C)C (stereo not drawn) [Compound 45] | 84% | 42% | 98% | – | – | –
CCOc1ccc2ccc(OC(OCC)C(=O)NC(C)(C)COC)cc2c1 (stereo not drawn) [Compound 120] | – | – | – | 90% | 99% | 98%
CCC(Oc1cc2cc(Br)ccc2cn1)C(=O)NC(C)(C)C (stereo not drawn) [Compound 67] | – | – | – | 92% | 77% | 100%
CCC(Oc1ccc2ccc(N)cc2c1)C(=O)NC(C)(C)C (stereo not drawn) [Compound 29] | 0% | 76% | 95% | – | – | –
CCC(Oc1cnc2c(Cl)cc(Cl)cc2c1)C(=O)NC(C)(C)C (stereo not drawn) [Compound 57] | 0% | 99% | 99% | – | – | –
CCC(Oc1cnc2ccc(Br)cc2c1)C(=O)NC1(C(=O)OC)CC1 (stereo not drawn) [Compound 44] | – | – | – | 0% | 0% | 0%
CCC(Oc1ccc2ccc(C)cc2c1)C(=O)NC(C)(C)COC (stereo not drawn) [Compound 159, N-(2-methoxy-1,1-dimethylethyl)-2-[(7-methyl-2-naphthalenyl)oxy]-butanamide] | 99% | 13% | 99% | – | – | –
C#Cc1ccc2ccc(OC(CC)C(=O)NC(C)(C)C)cc2c1 (stereo not drawn) [Compound 109, N-(1,1-dimethylethyl)-2-[(7-ethynyl-2-naphthalenyl)oxy]butanamide] | 100% | 100% | 99% | – | – | –
